{"source": "patent US20060217305A1", "about": "“Induction of tumor cell senescence by retinoid receptor agonists and antagonists” (Ordway Research Institute, Inc., priority 2005, published 2006)", "type_in_all_cases": "cell-based, human", "key": {"[1]": {"system": "retinoid-inducible genes EPLIN, UBD, IGFBP3, TGFB1 and TRIM31 in MCF-7 cells (subline MCF-7 3′SS6)", "assay": "real-time RT-PCR (QPCR) of retinoid-inducible gene expression, 2 days treatment", "details": "for Fold induction EPLIN / Fold induction IGFBP3 / Fold induction TGFBI / Fold induction TRIM31 / Fold induction UBD / fold induction at 0.1 µM: 2 days, MCF-7; for fold induction at 0.1 µM: Homo sapiens, MCF7, 48 h", "source_text": "The following compounds were obtained from Ligand Pharmaceuticals (San Diego, Calif.). LGD1550 is a pan-RAR agonist. LGD1268 is a pan-RXR agonist. LG100815 is a pan-RAR antagonist. LG101208 is a pan-RXR antagonist. The LG100815 compound is a specific RAR antagonist that binds to RAR, but fails to activate its Retinoic Acid Responsive Element (RARE)-dependent transcription transactivation function (see Lee et al, Mol. Cell Biol. 19: 1973-1980 (1999)). Also used was all-trans retinoic acid (RA), the most commonly used RAR agonist. To determine how these compounds affect the expression of retinoid-inducible growth inhibitory genes EPLIN, UBD, IGFBP3 and TGFB1, as well as TRIM31 gene that contains a putative RARE element in its promoter, MCF-7 cells (subline MCF-7 3′SS6) were treated with individual compounds or their combinations for 2 days, and RNA was extracted by standard procedures. In the initial assays, gene expression was analyzed by semi-quantitative reverse transcription-PCR (RT-PCR), as described in Dokmanovic et al., Cancer Biology & Therapy 1:24-27 (2002). In subsequent assays, the initial results were confirmed, expanded and quantitated by real-time RT-PCR (QPCR), using Applied BioSystems 7900HT real-time PCR instrument. β-actin was used as a normalization standard.\ncDNA was prepared by reverse transcription with random primer using 4 μg total RNA. 5 μl SYBR Green PCR Master Mix (Applied Biosystems) was mixed with […] cDNA and 0.8 pmol of gene-specific primers and brought up to 10 μl with ultra pure H2O in 384-well optical plates. For amplification, reaction mixtures were heated for 2 min at 50° C. and 10 min at 95° C., followed by 40 cycles of two-step PCR consisting of 15 sec at 95° C. and 1 min at 60° C., to construct dissociation curves and verify that single PCR products were obtained. PCR products were also analyzed by gel electrophoresis to confirm that a single product of the expected size was amplified. […] The comparative CT method for relative quantitation of gene expression described by Applied Biosystems was used to determine expression levels for target genes. Experiments were carried out in triplicate for each data point. Sequence Detection Systems software version 2.1 (Applied Biosystems) and Microsoft Excel were used for data analysis."}, "[2]": {"system": "MCF-7 cells", "assay": "MCF-7 cell growth, cell number after 7 days", "details": "100 nM RA, LGD1550, LGD1268, 10 μM LG100815, LG101208", "description": "The bars represent cell number after 7 days of culture with the addition of DMSO (control), 100 nM RA, 100 nM RAR agonist LGD1550, 100 nM RXR agonist LGD1268, 10 μM RAR antagonist LG100815, and 10 μM RXR antagonist LG101208. Experiments were done in triplicate, and the results are expressed relative to the average of the control.\n(§1) To test this, we have analyzed the effects of different compounds on the growth of MCF-7 cells, as measured by the cell number after 7 days exposure to the compounds (FIG. 2) and on the fraction of cells expressing the senescence-associated β-galactosidase activity (SA-β-gal), a marker of senescence, after 7-day treatment with the compounds (FIG. 3)."}, "[3]": {"system": "MCF-7 cells", "assay": "senescence-associated β-galactosidase (SA-β-gal) positive cells", "details": "7-day treatment (FIG. 3 legend: 8 days); concentrations as in FIG. 2", "source_text": "The bars represent percentages of SA-β-gal+ cells after 8 days of treatment with the indicated compounds (in triplicate). The compounds were used at the same concentrations as in FIG. 2.\nas §1"}, "[4]": {"system": "DR5 RARE-containing promoter in MCF-7 cells", "assay": "DR5-luciferase transient transfection assay (RARE-dependent transcription)", "details": "100 nM, 24 hrs", "description": "The assays were carried out in triplicate. RA is all-trans retinoic acid. LGD1550 is a pan-RAR agonist. LG100815 is a pan-RAR antagonist.\nTo confirm the ability of LG100815 to antagonize RARE-dependent induction of transcription analysis of firefly luciferase expression from a RARE-containing artificial promoter DR5 (Stratagene, catalog number 240119) was performed. Cells were plated to the density of 3×10^5 in P60 24 hrs before transient transfection. DR5 reporter plasmid (4 μg) was mixed with the SV40-driven-Renilla luciferase control plasmid (0.04 μg) and transfected using Lipofectamine Plus (Life Technologies/Invitrogen, Carlsbad, Calif.) as described by the manufacturer. 3 hrs after transfection, cells were rinsed three times with PBS, trypsinized and replated in a 12-well plate to the density of 5×10^4 cells per well. Retinoid agonists and antagonists were added 48 hrs later, and the luciferase assay was performed after another 24 hrs."}}, "note": "Entries after “also recorded” stand apart in the source; their conditions may differ. Read-outs that look alike come from different tables or passages of the source.", "data": [{"compound": "Cc1cc2c(cc1C1(c3ccc(C(=O)O)cn3)CC1)C(C)(C)CCC2(C)C", "note": "[LGD1268]", "values": [{"measurement": "Fold induction EPLIN", "setting": "[1]; 100 nM", "value": "1.2 ± 0.2", "unit": "fold"}, {"measurement": "Fold induction IGFBP3", "setting": "[1]; 100 nM", "value": "1.2 ± 0.5", "unit": "fold"}, {"measurement": "Fold induction TGFBI", "setting": "[1]; 100 nM", "value": "1.9 ± 1.1", "unit": "fold"}, {"measurement": "Fold induction TRIM31", "setting": "[1]; 100 nM", "value": "1.3 ± 0.4", "unit": "fold"}, {"measurement": "Fold induction UBD", "setting": "[1]; 100 nM", "value": "1.0 ± 0.1", "unit": "fold"}, {"measurement": "Fold induction EPLIN", "setting": "[1]; 1 μM", "value": "1.0 ± 0.1", "unit": "fold"}, {"measurement": "Fold induction IGFBP3", "setting": "[1]; 1 μM", "value": "0.9 ± 1.1", "unit": "fold"}, {"measurement": "Fold induction TGFBI", "setting": "[1]; 1 μM", "value": "2.2 ± 1.0", "unit": "fold"}, {"measurement": "Fold induction TRIM31", "setting": "[1]; 1 μM", "value": "1.4 ± 0.7", "unit": "fold"}, {"measurement": "Fold induction UBD", "setting": "[1]; 1 μM", "value": "0.8 ± 0.2", "unit": "fold"}, {"measurement": "Fold induction EPLIN", "setting": "[1]; 10 μM", "value": "1.4 ± 0.2", "unit": "fold"}, {"measurement": "Fold induction IGFBP3", "setting": "[1]; 10 μM", "value": "1.2 ± 0.4", "unit": "fold"}, {"measurement": "Fold induction TGFBI", "setting": "[1]; 10 μM", "value": "2.4 ± 0.3", "unit": "fold"}, {"measurement": "Fold induction TRIM31", "setting": "[1]; 10 μM", "value": "3.8 ± 0.7", "unit": "fold"}, {"measurement": "Fold induction UBD", "setting": "[1]; 10 μM", "value": "1.0 ± 0.2", "unit": "fold"}, {"measurement": "effect on expression of the five genes (IGFBP3, EPLIN, UBD, TGFB1, TRIM31)", "setting": "[1]; summary of Table 2, MCF-7", "value": "induced only one of five genes (TGFB1)"}, {"measurement": "effect on MCF-7 cell growth (cell number)", "setting": "[2]", "value": "did not inhibit cell growth; also recorded: modest but reproducible increase in cell growth"}, {"measurement": "induction of senescent phenotype (SA-β-gal+ cells)", "setting": "[3]", "value": "did not induce the senescent phenotype"}]}, {"compound": "CC1=C(/C=C/C(C)=C/C=C/C(C)=C/C(=O)O)C(C)(C)CCC1", "note": "[RA, all-trans retinoic acid]", "values": [{"measurement": "ratio of the fold-induction of TGFB1 relative to TRIM31", "setting": "[1]; 100 nM", "value": 0.19}, {"measurement": "fold induction at 0.1 µM", "setting": "[1]; 100 nM, read-out: Fold induction EPLIN", "value": "3.1 ± 0.7"}, {"measurement": "fold induction at 0.1 µM", "setting": "[1]; 100 nM, read-out: Fold induction IGFBP3", "value": "2.5 ± 0.5"}, {"measurement": "fold induction at 0.1 µM", "setting": "[1]; 100 nM, read-out: Fold induction TGFBI", "value": "6.5 ± 1.4"}, {"measurement": "fold induction at 0.1 µM", "setting": "[1]; 100 nM, read-out: Fold induction TRIM31", "value": "34.4 ± 3.9"}, {"measurement": "fold induction at 0.1 µM", "setting": "[1]; 100 nM, read-out: Fold induction UBD", "value": "8.5 ± 2.8"}, {"measurement": "induction of luciferase expression from DR5 RARE-containing promoter", "setting": "[4]", "value": "approximately 50 fold"}]}]}
